Read-outs that look alike come from different tables or passages of the source. One block for each molecule: values may come before it.
Legend:
[1] = tested on: insect cells infected with either vBP8-Grd, vBP8-LCCH3, or co-infected with vBP8-Grd and vBP8-LCCH3; experiment: Whole cell voltage clamp recordings of infected insect cells; assay type: cell-based, Drosophila; conditions: GABA applications of up to 1 mM, 30 to 36 hours post-infection, any of the three infected cell types
Description: Insect cells infected with either vBP8-Grd, vBP8-LCCH3, or co-infected with vBP8-Grd and vBP8-LCCH3 were analyzed for the expression and assembly of functional GABA-gated chloride channels. Whole cell voltage clamp recordings were made at between 30 and 36 hours post-infection. […] However, no specific [^3 H]EBOB binding was detected in cells infected with any combination of virus.

Drosophila Grd and LCCH3 [2] = target: T1, Drosophila Grd and LCCH3 (Drosophila melanogaster, UniProt Q08832+Q24352); experiment: [3H] muscimol radioligand binding assay, membranes of High Five cells co-infected with vBP8-Grd/vBP8-LCCH3; conditions: for IC50: half-maximal displacement of [3H] muscimol, read-out: IC50, Grd/LCCH3
T1 construct: made in house; host or cells: High Five (Trichoplusia ni) cells, co-infected with vBP8-Grd and vBP8-LCCH3
T1 sequence (Q24352 59-686): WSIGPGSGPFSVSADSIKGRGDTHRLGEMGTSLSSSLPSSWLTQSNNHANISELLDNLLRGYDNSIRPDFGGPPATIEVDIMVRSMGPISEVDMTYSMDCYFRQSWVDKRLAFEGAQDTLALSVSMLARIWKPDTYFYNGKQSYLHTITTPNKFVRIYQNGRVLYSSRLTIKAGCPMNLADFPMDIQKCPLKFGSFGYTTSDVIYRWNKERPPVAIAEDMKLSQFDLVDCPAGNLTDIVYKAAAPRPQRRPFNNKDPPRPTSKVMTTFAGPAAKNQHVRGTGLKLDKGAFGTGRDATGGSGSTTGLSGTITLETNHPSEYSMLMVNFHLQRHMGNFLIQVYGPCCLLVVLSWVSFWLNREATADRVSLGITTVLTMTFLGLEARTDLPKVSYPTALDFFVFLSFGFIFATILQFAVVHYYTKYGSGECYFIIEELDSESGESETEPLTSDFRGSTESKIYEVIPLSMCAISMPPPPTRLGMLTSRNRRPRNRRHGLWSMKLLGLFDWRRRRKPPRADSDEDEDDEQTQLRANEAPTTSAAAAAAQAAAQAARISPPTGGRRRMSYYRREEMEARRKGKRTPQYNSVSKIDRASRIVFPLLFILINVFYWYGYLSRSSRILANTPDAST
T1 sequence (Q08832 21-496): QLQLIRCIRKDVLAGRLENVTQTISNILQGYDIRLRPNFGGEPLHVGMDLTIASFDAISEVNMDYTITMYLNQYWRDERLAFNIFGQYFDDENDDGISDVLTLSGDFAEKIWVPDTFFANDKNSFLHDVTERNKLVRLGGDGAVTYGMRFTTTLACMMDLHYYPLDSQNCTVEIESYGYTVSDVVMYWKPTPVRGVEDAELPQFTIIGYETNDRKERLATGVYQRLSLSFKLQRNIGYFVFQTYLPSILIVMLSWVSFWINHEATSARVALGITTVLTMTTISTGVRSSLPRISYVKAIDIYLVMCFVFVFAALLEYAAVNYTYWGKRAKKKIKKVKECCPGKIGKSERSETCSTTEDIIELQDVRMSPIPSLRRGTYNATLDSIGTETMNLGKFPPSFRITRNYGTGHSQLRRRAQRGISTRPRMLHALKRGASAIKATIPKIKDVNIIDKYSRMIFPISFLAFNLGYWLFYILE
Description: (§1) High Five™ cells (derived from the cabbage loper, Trichoplusia ni, Invitrogen Corp.) were infected with vBP8-Rdl, vBP8-LCCH3, or vBP8-Grd, either singly or in various combinations. Cells were harvested at 3 days post-infection in tubes of approximately 6×10^7 cells per tube, the cells were pelleted by centrifugation, the supernatants discarded, and the pellets immediately stored at -80° C. This amount of tissue is sufficient for one 96-well microtiter plate. Membranes were prepared by first thawing and then resuspending the cell pellet in 25 mL of 10 mM phosphate buffer pH 7.4. The cells were gently homogenized with five strokes in a glass/Teflon homogenizer and the membranes pelleted by centrifugation at 120,000 g for 30 minutes. The membrane pellet was resuspended in 25 mL of 10 mM phosphate buffer pH 7.4, re-pelleted as above, and the pellet finally resuspended in 3 mL of buffer. The protein concentration was determined by the Bradford method (Bradford (1976) Anal. Biochem. 79:248) and then adjusted to 625 μg of protein per mL of 10 mM PBS, pH 7.4.
The radioligand binding assays were composed of 200 μL membrane preparation (containing 125 μg protein), 100 μL of [^3 H] muscimol (to give a final concentration of 5 nM), 20 μL of unlabeled test compound, buffer or unlabeled muscimol, and 680 μL of 10 mM PBS, pH 7.4. […] The reactions were incubated for 90 minutes at 4° C., and then terminated by filtration through Whatman GF/B glass fiber filters. Filters were washed with two 5 mL aliquots of cold buffer, and the radioactivity remaining on the filters was determined by liquid scintillation. Multiple assays were performed to test numerous compounds.

Drosophila LCCH3 = target: T2, Drosophila LCCH3 (Drosophila melanogaster, UniProt Q08832); experiment: [3H] muscimol radioligand binding assay, membranes of High Five cells infected with vBP8-LCCH3; conditions: High Five cell membranes
T2 construct: made in house; host or cells: High Five (Trichoplusia ni) cells, baculovirus vBP8-LCCH3
T2 sequence (Q08832 21-496): T1 sequence (Q08832 21-496)
Description: as §1, with “The membrane pellet was resuspended in 25 mL of 10 mM phosphate buffer pH 7.4, re-pelleted as above, and the pellet finally resuspended in 3 mL of buffer.” left out
(§2) The radioligand binding assays were composed of 200 μL membrane preparation (containing 125 μg protein), 100 μL of [^3 H] muscimol (to give a final concentration of 5 nM), 20 μL of unlabeled test compound, buffer or unlabeled muscimol, and 680 μL of 10 mM PBS, pH 7.4. […] Filters were washed with two 5 mL aliquots of cold buffer, and the radioactivity remaining on the filters was determined by liquid scintillation. […]

Rat brain = experiment: [3H] muscimol binding, rat brain (previous assays of the inventors)
Description: Data from fly heads and rat brains were obtained as described in Table 2.

Drosophila Rdl = target: T3, Drosophila Rdl (Drosophila melanogaster, UniProt P25123); experiment: [3H] muscimol radioligand binding assay, membranes of High Five cells infected with vBP8-Rdl; conditions: for IC50: half-maximal displacement of [3H] muscimol, read-out: IC50, Rdl
T3 construct: excised the full-length cDNA encoding Rdl; made in house; host or cells: High Five (Trichoplusia ni) cells, baculovirus vBP8-Rdl
T3 sequence (P25123 45-606): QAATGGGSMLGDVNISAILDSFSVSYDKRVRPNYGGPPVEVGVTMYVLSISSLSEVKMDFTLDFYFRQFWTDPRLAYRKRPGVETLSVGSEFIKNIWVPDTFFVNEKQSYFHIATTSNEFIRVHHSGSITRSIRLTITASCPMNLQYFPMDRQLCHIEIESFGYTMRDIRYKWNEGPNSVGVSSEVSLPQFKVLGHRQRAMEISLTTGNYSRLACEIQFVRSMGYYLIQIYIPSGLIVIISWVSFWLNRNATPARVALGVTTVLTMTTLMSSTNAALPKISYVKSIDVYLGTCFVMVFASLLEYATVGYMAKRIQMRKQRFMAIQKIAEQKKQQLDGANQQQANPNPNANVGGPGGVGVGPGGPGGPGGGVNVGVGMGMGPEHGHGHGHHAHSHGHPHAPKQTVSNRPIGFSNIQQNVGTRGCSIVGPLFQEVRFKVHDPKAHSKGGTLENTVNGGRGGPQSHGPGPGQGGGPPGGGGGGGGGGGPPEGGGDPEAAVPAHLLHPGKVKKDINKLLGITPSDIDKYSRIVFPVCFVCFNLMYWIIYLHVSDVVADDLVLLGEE
Description: as §1
(§3) The reactions were incubated for 90 minutes at 4° C., and then terminated by filtration through Whatman GF/B glass fiber filters. Filters were washed with two 5 mL aliquots of cold buffer, and the radioactivity remaining on the filters was determined by liquid scintillation. Multiple assays were performed to test numerous compounds.

[3] = target: T4, Drosophila Rdl, Grd and LCCH3 (Drosophila melanogaster, UniProt P25123+Q08832+Q24352); experiment: [3H] muscimol radioligand binding assay, membranes of High Five cells infected with vBP8-Grd/vBP8-LCCH3/vBP8-Rdl; conditions: High Five cell membranes
T4 construct: excised the full-length cDNA encoding Rdl; made in house; host or cells: High Five (Trichoplusia ni) cells, co-infected with vBP8-Grd, vBP8-LCCH3 and vBP8-Rdl
T4 sequence (P25123 45-606): T3 sequence (P25123 45-606)
T4 sequence (Q24352 59-686): T1 sequence (Q24352 59-686)
T4 sequence (Q08832 21-496): T1 sequence (Q08832 21-496)
Description: as §1, §3

Drosophila Grd = target: T5, Drosophila Grd (Drosophila melanogaster, UniProt Q24352); experiment: [3H] muscimol radioligand binding assay, membranes of High Five cells infected with vBP8-Grd; conditions: High Five cell membranes
T5 construct: made in house; host or cells: High Five (Trichoplusia ni) cells, baculovirus vBP8-Grd
T5 sequence (Q24352 59-686): T1 sequence (Q24352 59-686)
Description: as §1, with “The membrane pellet was resuspended in 25 mL of 10 mM phosphate buffer pH 7.4, re-pelleted as above, and the pellet finally resuspended in 3 mL of buffer.” left out
as §2

Housefly heads = conditions: housefly heads, from Lunt et al. (1985); cited from earlier work
Human α1 and rat β2 = target: T6, Human α1 and rat β2 (UniProt P14867+P63138); experiment: [3H] muscimol radioligand binding assay, positive control receptor expressed in insect cells; conditions: [3H] muscimol 5 nM, insect cell membranes
T6 construct: made in house; host or cells: insect cells, baculoviruses vEV-humα1 and vEV-ratβ2
T6 sequence (P14867 28-456): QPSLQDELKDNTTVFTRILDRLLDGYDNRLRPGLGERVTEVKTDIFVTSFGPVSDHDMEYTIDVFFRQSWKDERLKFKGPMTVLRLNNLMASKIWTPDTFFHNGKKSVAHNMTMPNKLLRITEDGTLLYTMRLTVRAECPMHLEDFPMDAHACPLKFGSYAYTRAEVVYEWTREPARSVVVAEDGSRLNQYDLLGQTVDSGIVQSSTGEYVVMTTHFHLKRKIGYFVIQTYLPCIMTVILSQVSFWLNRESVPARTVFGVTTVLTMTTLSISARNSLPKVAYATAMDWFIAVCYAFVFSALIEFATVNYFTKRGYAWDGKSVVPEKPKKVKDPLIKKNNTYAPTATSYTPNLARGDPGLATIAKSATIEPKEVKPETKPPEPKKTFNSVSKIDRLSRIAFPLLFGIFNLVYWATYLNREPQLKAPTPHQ
T6 sequence (P63138 25-474 limits assumed): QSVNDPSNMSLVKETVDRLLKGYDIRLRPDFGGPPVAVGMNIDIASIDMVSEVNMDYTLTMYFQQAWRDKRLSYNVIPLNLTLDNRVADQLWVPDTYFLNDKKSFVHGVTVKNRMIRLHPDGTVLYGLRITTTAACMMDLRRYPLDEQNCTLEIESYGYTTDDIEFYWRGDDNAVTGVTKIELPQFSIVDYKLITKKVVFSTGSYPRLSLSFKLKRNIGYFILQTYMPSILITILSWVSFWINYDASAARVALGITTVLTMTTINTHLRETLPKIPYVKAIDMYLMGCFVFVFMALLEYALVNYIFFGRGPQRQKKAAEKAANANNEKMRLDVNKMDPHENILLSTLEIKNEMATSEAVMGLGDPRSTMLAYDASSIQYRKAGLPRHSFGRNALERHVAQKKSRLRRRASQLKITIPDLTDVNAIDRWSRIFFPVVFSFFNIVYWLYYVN

Drosophila Grd and LCCH3 [4] = target: T1, Drosophila Grd and LCCH3; experiment: [3H] muscimol radioligand binding assay, membranes of High Five cells co-infected with vBP8-Grd/vBP8-LCCH3
[5] = [3H] muscimol 5 nM, non-specific = 10 μM GABA
[6] = [3H] muscimol saturation binding
[7] = [3H] muscimol 5 nM, High Five cell membranes, non-specific = 10 μM GABA
[8] = [3H] muscimol saturation binding, High Five cell membranes
[9] = half-maximal displacement of [3H] muscimol, previous assays by the inventors

Structure (SMILES): NCCCC(=O)O [GABA, γ-aminobutyric acid]
Depolarization in whole cell voltage clamp [1]: Depolarization was not detected
IC50 (Drosophila Grd and LCCH3 [2]): 0.038 µM

Structure (SMILES): NCc1cc(O)no1 [[^3 H] muscimol]
% Specific Binding (Drosophila LCCH3; [5]): 10%
Kd (Drosophila LCCH3; [6]): > 10 µM
Kd (Rat brain; rat brain, previous assays by the inventors): 0.028 µM
Bmax (Drosophila Rdl; High Five cell membranes): 0.11 pmol [3H] muscimol bound per m
% Specific Binding (Drosophila Rdl; [7]): 55%
Kd (Drosophila Rdl; [8]): 0.012 µM
Bmax [3]: 0.64 pmol [3H] muscimol bound per m
% Specific Binding [3, 5]: 60%
Kd [3, 6]: 0.038 µM
% Specific Binding (Drosophila Grd; [5]): 10%
Kd (Drosophila Grd; [6]): > 10 µM
Kd (Housefly heads): 0.04 µM
% Specific Binding (Human α1 and rat β2): 80%
maximum number of binding sites (Bmax) relative to vBP8-Rdl-infected cells (Drosophila Grd and LCCH3 [4]; Grd/LCCH3 co-infected versus Rdl-infected cells): 15 fold
Bmax (Drosophila Grd and LCCH3 [4]; High Five cell membranes): 1.85 pmol [3H] muscimol bound per m
Kd (Drosophila Grd and LCCH3 [4]; [8]): 0.012 µM
% Specific Binding (Drosophila Grd and LCCH3 [2]; [7]): 85%
specific binding of [3H]muscimol (Drosophila Grd and LCCH3 [2]; cells 3 days after co-infection with vBP8-Grd and vBP8-LCCH3): High levels of specific binding

Structure (SMILES): COc1ccc(-c2ccc(=N)n(CCCC(=O)O)n2)cc1 [Gabazine]
IC50 (Rat brain): 0.483 µM
IC50 (Drosophila Rdl): > 1000 µM
IC50 (Drosophila Grd and LCCH3 [2]): > 1000 µM

Structure (SMILES): O=C(O)C1CCNCC1 [Isonipecotic acid]
IC50 (Rat brain; [9]): 1.43 µM
IC50 (Drosophila Rdl): 1.7 µM
IC50 (Drosophila Grd and LCCH3 [2]): 2.68 µM

Further lines, results first:

IC50 (Drosophila Rdl): > 1000 µM
IC50 (Drosophila Grd and LCCH3 [2]): > 1000 µM
Structure (SMILES): O=S(=O)(O)C1CCNCC1 [Piperidine-4-sulfonate]

IC50 (Rat brain; [9]): > 1000 µM
IC50 (Drosophila Rdl): 2.91 µM
IC50 (Drosophila Grd and LCCH3 [2]): 1.62 µM
Structure (SMILES): NC/C=C\C(=O)O [cis-4-amino-crotonic acid]
